Test results published in patent US20020122768A1, “Stable radiopharmaceutical compositions and methods for preparation thereof” (priority 2000, published 2002).

Assay: Solution stability of ^90Y-B at −78° C., RCP by radio-HPLC
Format: physicochemical
Details: ^90Y-B prepared with GA; for RCP (%) t = 0 / RCP (%) t = 3 days / RCP (%) t = 7 days: degassed, second stabilizer (20 mg AA, 20 mg DSA, 10 mg 2,3,4-THBA, 10 mg HABA) added post-labeling; for RCP (%) change: second stabilizer added post-labeling, t = 0 to 7 days
Protocol: The integrity of a radiopharmaceutical is measured by the radiochemical purity (RCP) of the radiolabeled compound using ITLC or more preferably HPLC. The advantage of using HPLC is that radio-impurities caused by radiolytic degradation can be separated from the radiopharmaceutical under optimized chromatographic conditions. […] The radiopharmaceutical compositions of this invention are effective in maintaining the long-term stability of samples that have been frozen, thawed, and re-tested periodically for 7 days.
The initial RCP of a radiopharmaceutical is largely dependent on radiolabeling conditions such as pH, heating temperature and time. Once a radiopharmaceutical is prepared in high yield, the stability of the radiopharmaceutical composition is measured by the` RCP change of the radiopharmaceutical over a certain period of time. For comparison purposes, sodium gentisate or sodium ascorbate was often used as the reference since they have been used in various radiopharmaceutical formulations.
HPLC method 2 used a HP-1100 HPLC system with a UV/visible detector (λ=220 nm), an IN-US radio-detector, and a Zorbax C18 column (4.6 mm×250 mm, 80 Å pore size). The flow rate was 1 mL/min with a gradient mobile phase starting from 92% solvent A (0.025 M ammonium acetate buffer, pH 6.8) and 8% solvent B (acetonitrile) at 0 min to 90% solvent A and 10% solvent B at 18 min, followed by an isocratic wash using 40% of solvent A and 60% solvent B from 19 to 25 min.
The ITLC method used Gelman Sciences silica-gel ITLC paper strips and 1:1 mixture of acetone and saline as eluant. By this method, the radiolabeled compounds migrate to the solvent front while [^90Y]/^177Lu]colloid and [^90Y]/^177Lu]acetate remain at the origin. […]
The 0.5 M ammonium acetate buffer (pH 8.0) was first degassed under vacuum for 1-2 min. COMPOUND B and gentisic acid (sodium salt, GA) were dissolved in the degassed buffer to give a concentration of 100 μg/mL for COMPOUND B and 20 mg/mL for GA. The resulting solution was immediately degassed under vacuum for another 1-2 min. To a clean sealed 5 mL vial was added 1.0 mL of the degassed 0.5 M ammonium acetate buffer (pH 8.0) containing 100 μg COMPOUND B and 10 mg GA. The solution was degassed again under vacuum. Upon addition of ˜20 μL of ^90YCl3 solution (˜20 mCi) in 0.05 N HCl, the reaction mixture was heated at 100° C. for 5 min. After cooling to room temperature, a sample of the resulting solution was diluted 20-fold with saline containing gentisate (10 mg/mL), and was then analyzed by HPLC (Method 2, injection volume=1-2 μL) and ITLC. […] To the solution above was added 0.5 mL of sodium ascorbate solution (40 mg/mL in 0.5 M ammonium acetate buffer, pH=7.4). The resulting mixture was then kept in a dry-ice box (−78° C.) for 7 days. Samples were analyzed at t=0, 3 and 7 days.
The 0.5 M ammonium acetate buffer (pH 8.0) was first degassed under vacuum for 1-2 min. COMPOUND B and gentisic acid (sodium salt, GA) were dissolved in the degassed buffer to give a concentration of 100 μg/mL for COMPOUND B and 20 mg/mL for GA. The resulting solution was immediately degassed under vacuum for another 1-2 min. To a clean sealed 5 mL vial was added 1.0 mL of the degassed 0.5 M ammonium acetate buffer (pH 8.0) containing 100 μg COMPOUND B and 10 mg GA. The solution was degassed again under vacuum. Upon addition of ˜20 μL of ^90YCl3 solution (˜20 mCi) in 0.05 N HCl, the reaction mixture was heated at 100° C. for 5 min. After cooling to room temperature, a sample of the resulting solution was diluted 20-fold with saline containing gentisate (10 mg/mL), and was then analyzed by HPLC (Method 2, injection volume=1-2 μL) and ITLC. […] To the solution above was added 0.5 mL of 2,3,4-trihydroxybenzoic acid solution (20 mg/mL in 0.5 M ammonium acetate buffer, pH=6.5). The resulting mixture was then kept in a dry-ice box (−78° C.) for 7 days. Samples were analyzed at t=0, 3 and 7 days. […]

| Compound | RCP (%) t = 0 [%] | RCP (%) t = 3 days [%] | RCP (%) t = 7 days [%] | RCP (%) change [%] |
| --- | --- | --- | --- | --- |
| 2,4-disulfonatobenzeneamine [DSA] | 94.4 | 94.8 | 94.5 | 0.1 |
| O=C(O)c1ccc(O)c(O)c1O [2,3,4-THBA, 2,3,4-trihydroxybenzoic acid] | 94.2 | 93.6 | 93.9 | 0.3 |
